Assay results from the NIST ThermoML archive (doi:10.1016/j.jct.2008.12.009).
± gives the expanded uncertainty stated by the source.

Assay: excess molar enthalpy (molar enthalpy of mixing); xn = mol fraction of the nth substance listed
Details: 101.33 kPa, Gas, Flow calorimetry, x1 = 0.5

`O=O` [oxygen] + O showed an excess molar enthalpy (373.15 K) of 0.0132 ± 0.000406 kcal/mol, an excess molar enthalpy (383.15 K) of 0.0115 ± 0.000382 kcal/mol and an excess molar enthalpy (393.15 K) of 0.0103 ± 0.000382 kcal/mol. The excess molar enthalpy (403.15 K) was 0.00908 ± 0.000382 kcal/mol, the excess molar enthalpy (413.15 K) was 0.00822 ± 0.000382 kcal/mol and the excess molar enthalpy (423.15 K) was 0.00741 ± 0.000382 kcal/mol. It also gave an excess molar enthalpy (433.15 K) of 0.00679 ± 0.000359 kcal/mol, an excess molar enthalpy (443.15 K) of 0.00619 ± 0.000359 kcal/mol and an excess molar enthalpy (453.15 K) of 0.00564 ± 0.000359 kcal/mol. The excess molar enthalpy (463.15 K) was 0.00516 ± 0.000359 kcal/mol, the excess molar enthalpy (473.15 K) was 0.00483 ± 0.000359 kcal/mol and the excess molar enthalpy (483.15 K) was 0.00449 ± 0.000359 kcal/mol. For the same compound, the excess molar enthalpy (493.15 K) was 0.00413 ± 0.000359 kcal/mol.

`N#N` [nitrogen] + O showed an excess molar enthalpy (373.15 K) of 0.0129 ± 0.000382 kcal/mol, an excess molar enthalpy (383.15 K) of 0.0113 ± 0.000359 kcal/mol and an excess molar enthalpy (393.15 K) of 0.0101 ± 0.000359 kcal/mol. The excess molar enthalpy (403.15 K) was 0.00891 ± 0.000359 kcal/mol, the excess molar enthalpy (413.15 K) was 0.00803 ± 0.000359 kcal/mol and the excess molar enthalpy (423.15 K) was 0.00722 ± 0.000335 kcal/mol. The excess molar enthalpy (433.15 K) was 0.00664 ± 0.000335 kcal/mol, the excess molar enthalpy (443.15 K) was 0.006 ± 0.000335 kcal/mol and the excess molar enthalpy (453.15 K) was 0.00547 ± 0.000335 kcal/mol. It also gave an excess molar enthalpy (463.15 K) of 0.00504 ± 0.000335 kcal/mol, an excess molar enthalpy (473.15 K) of 0.00471 ± 0.000335 kcal/mol and an excess molar enthalpy (483.15 K) of 0.0043 ± 0.000335 kcal/mol. For the same compound, the excess molar enthalpy (493.15 K) was 0.00402 ± 0.000335 kcal/mol.
